According to paper PMC6855808, “Direct binding of phosphatidylglycerol at specific sites modulates desensitization of a ligand-gated ion channel” (eLife, 2019):
Where “and” joins values, the source holds several entries; their conditions need not be identical. Equal values may be shown once.

Key:
ELIC WT [1] = assay: Native MS phospholipid binding to delipidated ELIC in C10E5; parameters: species or system Erwinia chrysanthemi
Method: (§1) Native MS analysis was similar to previous descriptions for other membrane proteins ([Gault et al., 2016]). For analysis of ELIC in DDM, 30 μl of purified protein in 0.02% DDM at ~1 mg/ml was buffer exchanged into 200 mM ammonium acetate pH 7.5% and 0.02% DDM using Biospin six gel filtration spin columns (Bio-Rad, Hercules, CA). 2 μl of buffer exchanged ELIC was loaded into a borosilicate capillary emitter (Thermo Scientific, Waltham, MA), and analyzed by static nanospray on a Thermo QExactive EMR mass spectrometer. The following parameters were used to resolve the ELIC pentamer and minimize dissociation into tetramer and monomer: capillary voltage of 1.2 kV, capillary temperature of 200°C, ion transfer optics set with the injection flatapole, inter-flatapole lens, bent flatapole, transfer multiple as 8, 7, 6, 4 V, respectively, resolution 8,750, AGC target 3 × 10^6, trap pressure set to maximum, CID 200 V, and CE 100 V. For analysis of ELIC in C10E5, ELIC delipidated by injecting 300 μg onto a Sephadex 200 10/300 column (GE Healthcare) at 0.5 ml/min pre-equilibrated with Buffer A, 10% glycerol, and 0.06% C10E5 (Anatrace). 30 μl aliquots were then buffer exchanged to 100 mM ammonium acetate pH 7.5, 0.06% C10E5 using Biospin six columns, and diluted to 0.2 mg/ml. MS measurements on the QExactive EMR were performed with the parameters listed above except: capillary temperature 100°C, CID 75 V and CE 200 V. For lipid binding measurements, stocks of POPG lipid were prepared at 2× the concentration of POPG being tested in 100 mM ammonium acetate pH 7.5% and 0.06% C10E5. Lipid stocks were then mixed with 0.4 mg/ml ELIC in a 1:1 vol ratio for a final concentration of 1 μM ELIC, and samples were analyzed after >5 min incubation.
(§2) MS spectra were deconvoluted using UniDec ([Marty et al., 2015]); deconvolution of spectra with bound lipid was restricted to the 26+ to 22+ charge states (Figure 1—figure supplement 3). Peak heights of apo and lipid-bound species were extracted from UniDec, and analyzed by two approaches. The average number of bound lipids was determined by the following relationship:(1) Averagenumberboundlipid=∑n=0kn\cdot In/∑n=0kIn where n is the number of bound lipids and In is the deconvoluted peak height of ELIC with n bound lipids. Peak heights of apo and lipid-bound species were also plotted as mole fraction versus the number of bound lipids (Figure 1—figure supplement 4).
(§3) Then, the probability (B) that q sites are occupied out of N total sites is given by the binomial probability function:(3) Bq=N!/q!N-q!p^N-q(1-p)^q
(§4) B(q) was used to determine the mole fraction of each lipid-bound species at a given [A], which was used to fit the native MS data in Excel across all [A] by setting K constant and varying N or vice versa.

ELIC R117Q/R299Q = biological target: T1, ELIC R117Q/R299Q (Dickeya chrysanthemi, UniProt P0C7B7, R117Q/R298Q); assay: Native MS POPG binding, mutant; parameters: species or system Erwinia chrysanthemi; details: binomial fit, N varied; 12 μM POPG
T1 construct: MBP (N, cleaved yes); made in house; host or cells: OverExpress C43 (DE3) E. coli
T1 sequence (P0C7B7 whole entry R117Q/R298Q): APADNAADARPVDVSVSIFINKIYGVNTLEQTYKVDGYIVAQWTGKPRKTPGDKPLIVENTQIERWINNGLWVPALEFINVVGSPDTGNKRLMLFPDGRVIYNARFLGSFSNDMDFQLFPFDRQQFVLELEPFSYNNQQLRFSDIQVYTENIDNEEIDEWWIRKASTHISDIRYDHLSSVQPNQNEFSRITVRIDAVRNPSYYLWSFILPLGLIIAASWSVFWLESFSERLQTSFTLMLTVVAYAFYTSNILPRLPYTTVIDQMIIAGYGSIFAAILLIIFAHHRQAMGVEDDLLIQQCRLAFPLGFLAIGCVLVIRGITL
Method: as §1, §2, §3, §4

ELIC R123Q/R299Q = biological target: T2, ELIC R123Q/R299Q (Dickeya chrysanthemi, UniProt P0C7B7, R123Q/R298Q); assay: Native MS POPG binding, mutant; parameters: species or system Erwinia chrysanthemi; details: binomial fit, N varied; 12 μM POPG
T2 construct: MBP (N, cleaved yes); made in house; host or cells: OverExpress C43 (DE3) E. coli
T2 sequence (P0C7B7 whole entry R123Q/R298Q): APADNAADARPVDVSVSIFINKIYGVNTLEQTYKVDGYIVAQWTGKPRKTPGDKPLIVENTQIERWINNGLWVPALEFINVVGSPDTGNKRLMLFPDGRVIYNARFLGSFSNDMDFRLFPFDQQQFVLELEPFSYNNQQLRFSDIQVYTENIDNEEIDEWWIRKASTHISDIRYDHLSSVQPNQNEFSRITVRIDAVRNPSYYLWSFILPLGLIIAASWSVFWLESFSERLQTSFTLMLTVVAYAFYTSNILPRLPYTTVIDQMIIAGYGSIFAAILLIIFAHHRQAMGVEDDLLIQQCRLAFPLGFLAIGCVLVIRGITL
Method: as §1, §2, §3, §4

ELIC R286Q = biological target: T3, ELIC R286Q (Dickeya chrysanthemi, UniProt P0C7B7, R285Q); assay: Native MS POPG binding, mutant; parameters: species or system Erwinia chrysanthemi; details: binomial fit, N varied; 12 μM POPG
T3 construct: MBP (N, cleaved yes); made in house; host or cells: OverExpress C43 (DE3) E. coli
T3 sequence (P0C7B7 whole entry R285Q): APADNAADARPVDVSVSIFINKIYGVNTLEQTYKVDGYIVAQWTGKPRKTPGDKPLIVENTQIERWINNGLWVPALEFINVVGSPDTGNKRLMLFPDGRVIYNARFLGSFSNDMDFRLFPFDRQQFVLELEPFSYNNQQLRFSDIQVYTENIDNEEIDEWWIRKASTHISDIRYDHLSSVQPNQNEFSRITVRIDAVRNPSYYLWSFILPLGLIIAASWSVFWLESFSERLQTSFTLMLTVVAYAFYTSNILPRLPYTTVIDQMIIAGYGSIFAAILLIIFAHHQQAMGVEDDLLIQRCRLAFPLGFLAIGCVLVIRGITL
Method: as §1, §2, §3, §4

ELIC R286Q/R299Q = biological target: T4, ELIC R286Q/R299Q (Dickeya chrysanthemi, UniProt P0C7B7, R285Q/R298Q); assay: Native MS POPG binding, mutant; parameters: species or system Erwinia chrysanthemi; details: binomial fit, N varied; 12 μM POPG
T4 construct: MBP (N, cleaved yes); made in house; host or cells: OverExpress C43 (DE3) E. coli
T4 sequence (P0C7B7 whole entry R285Q/R298Q): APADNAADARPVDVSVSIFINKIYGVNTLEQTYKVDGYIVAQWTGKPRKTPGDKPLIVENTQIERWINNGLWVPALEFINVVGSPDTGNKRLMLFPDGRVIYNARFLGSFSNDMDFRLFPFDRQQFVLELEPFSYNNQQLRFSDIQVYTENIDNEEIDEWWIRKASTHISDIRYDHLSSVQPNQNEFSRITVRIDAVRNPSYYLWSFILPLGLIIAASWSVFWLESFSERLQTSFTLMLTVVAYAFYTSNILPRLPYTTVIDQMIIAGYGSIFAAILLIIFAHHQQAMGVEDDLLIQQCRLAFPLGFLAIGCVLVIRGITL
Method: as §1, §2, §3, §4

ELIC R299Q = biological target: T5, ELIC R299Q (Dickeya chrysanthemi, UniProt P0C7B7, R298Q); assay: Native MS POPG binding, mutant; parameters: species or system Erwinia chrysanthemi; details: binomial fit, N varied; 12 μM POPG
T5 construct: MBP (N, cleaved yes); made in house; host or cells: OverExpress C43 (DE3) E. coli
T5 sequence (P0C7B7 whole entry R298Q): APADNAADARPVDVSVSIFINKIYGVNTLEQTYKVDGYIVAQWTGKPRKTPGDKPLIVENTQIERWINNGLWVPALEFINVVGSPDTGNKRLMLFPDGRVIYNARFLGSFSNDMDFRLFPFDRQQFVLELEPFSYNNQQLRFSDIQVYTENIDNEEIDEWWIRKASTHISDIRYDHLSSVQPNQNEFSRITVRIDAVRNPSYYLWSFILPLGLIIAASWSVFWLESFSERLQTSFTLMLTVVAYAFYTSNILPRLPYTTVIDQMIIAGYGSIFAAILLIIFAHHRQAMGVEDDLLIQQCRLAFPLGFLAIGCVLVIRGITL
Method: as §1, §2, §3, §4

ELIC R301Q/R299Q = biological target: T6, ELIC R301Q/R299Q (Dickeya chrysanthemi, UniProt P0C7B7, R298Q/R300Q); assay: Native MS POPG binding, mutant; parameters: species or system Erwinia chrysanthemi; details: binomial fit, N varied; 12 μM POPG
T6 construct: MBP (N, cleaved yes); made in house; host or cells: OverExpress C43 (DE3) E. coli
T6 sequence (P0C7B7 whole entry R298Q/R300Q): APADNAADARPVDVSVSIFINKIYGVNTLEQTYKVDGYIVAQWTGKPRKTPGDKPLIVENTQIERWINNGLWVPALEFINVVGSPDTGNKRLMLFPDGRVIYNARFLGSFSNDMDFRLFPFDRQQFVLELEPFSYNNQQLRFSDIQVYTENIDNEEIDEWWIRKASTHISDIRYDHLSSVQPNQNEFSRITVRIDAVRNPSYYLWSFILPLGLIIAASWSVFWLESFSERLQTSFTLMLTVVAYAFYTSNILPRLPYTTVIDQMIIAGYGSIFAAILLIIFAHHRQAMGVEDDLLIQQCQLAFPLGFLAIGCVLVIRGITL
Method: as §1, §2, §3, §4

ELIC L238A = biological target: T7, ELIC L238A (Dickeya chrysanthemi, UniProt P0C7B7, L237A); assay: Native MS POPG binding, mutant; parameters: species or system Erwinia chrysanthemi; details: 12 μM POPG
T7 construct: MBP (N, cleaved yes); made in house; host or cells: OverExpress C43 (DE3) E. coli
T7 sequence (P0C7B7 whole entry L237A): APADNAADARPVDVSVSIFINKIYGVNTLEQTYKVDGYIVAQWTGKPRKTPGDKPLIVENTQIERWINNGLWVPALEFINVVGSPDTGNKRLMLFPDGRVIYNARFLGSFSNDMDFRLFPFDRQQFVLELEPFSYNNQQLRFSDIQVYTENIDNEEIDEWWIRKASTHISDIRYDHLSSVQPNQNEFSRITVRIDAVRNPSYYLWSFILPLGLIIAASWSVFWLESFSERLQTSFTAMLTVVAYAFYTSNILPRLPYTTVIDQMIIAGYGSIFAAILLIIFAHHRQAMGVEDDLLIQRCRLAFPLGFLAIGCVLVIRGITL
Method: (§5) Native MS analysis was similar to previous descriptions for other membrane proteins ([Gault et al., 2016]). For analysis of ELIC in DDM, 30 μl of purified protein in 0.02% DDM at ~1 mg/ml was buffer exchanged into 200 mM ammonium acetate pH 7.5% and 0.02% DDM using Biospin six gel filtration spin columns (Bio-Rad, Hercules, CA). 2 μl of buffer exchanged ELIC was loaded into a borosilicate capillary emitter (Thermo Scientific, Waltham, MA), and analyzed by static nanospray on a Thermo QExactive EMR mass spectrometer. […] Lipid stocks were then mixed with 0.4 mg/ml ELIC in a 1:1 vol ratio for a final concentration of 1 μM ELIC, and samples were analyzed after >5 min incubation.
(§6) MS spectra were deconvoluted using UniDec ([Marty et al., 2015]); deconvolution of spectra with bound lipid was restricted to the 26+ to 22+ charge states (Figure 1—figure supplement 3). Peak heights of apo and lipid-bound species were extracted from UniDec, and analyzed by two approaches. The average number of bound lipids was determined by the following relationship:(1) Averagenumberboundlipid=∑n=0kn\cdot In/∑n=0kIn where n is the number of bound lipids and In is the deconvoluted peak height of ELIC with n bound lipids. […]

[2] = system: ELIC single mutants (R123Q, R286Q, R299Q); assay: Native MS POPG binding, single arginine mutants as a group; parameters: species or system Erwinia chrysanthemi; details: 12 μM POPG; not statistically significant
Method: as §5, §6

[3] = system: ELIC double mutants (arginine mutants in combination with R299Q); assay: Native MS POPG binding, double arginine mutants as a group; parameters: species or system Erwinia chrysanthemi
Method: as §1, with “MS measurements on the QExactive EMR were performed with the parameters listed above except: capillary temperature 100°C, CID 75 V and CE 200 V. For lipid binding measurements, stocks of POPG lipid were prepared at 2× the concentration of POPG being tested in 100 mM ammonium acetate pH 7.5% and 0.06% C10E5.” left out
as §6

ELIC WT [4] = assay: Thermal stability assay (SEC pentamer peak after heating); type: binding, Erwinia chrysanthemi
Method: Purified WT ELIC in C10E5 (Buffer A, 0.06% C10E5) was diluted to 1 μM in the absence or presence of various concentrations of phospholipid. Samples were analyzed without and with heating in the absence or presence of phospholipid. […] The stabilizing effect of a phospholipid was quantified as the pentamer amplitude in the presence of phospholipid (heated) divided by control (heated).

ELIC WT [5] = assay: Excised patch-clamp recordings from giant liposomes; details: 30 mM cysteamine; for Desensitization norm current at 20 s: normalized to peak response

In the case of `CCCCCCCC/C=C\CCCCCCCC(=O)OC(COC(=O)CCCCCCCCCCCCCCC)COP(=O)(O)OCC(O)CO` (centres unmarked) [POPG, 1-palmitoyl-2-oleoyl-phosphatidylglycerol], the “Average number of bound phospholipids per pentamer” value (ELIC WT [1]; 12 μM lipid, 1 μM ELIC) is reported as 2.9, the “Maximum number of bound POPG per pentamer seen in native MS spectra” value (ELIC WT [1]; 12 μM lipid, 1 μM ELIC) is reported as “up to nine” and the Kd (ELIC WT [1]; binomial binding model, 32 sites of equal affinity, 1 μM ELIC in C10E5, read-out: Dissociation constant K) is reported as 101 µM. For the same molecule, the “Fold higher affinity than POPC” value (ELIC WT [1]; from binomial fits) was about 2.8 ×, the “Fold higher affinity than POPE” value (ELIC WT [1]; from binomial fits) was ~ 1.9 × and the “N (# sites)” value (ELIC R117Q/R299Q) was 20. For the same molecule, the “N (# sites)” value (ELIC R123Q/R299Q) was 18, the “N (# sites)” value (ELIC R286Q) was 28 and the “N (# sites)” value (ELIC R286Q/R299Q) was 18. For the same molecule, the “N (# sites)” value (ELIC R299Q) was 27, the “N (# sites)” value (ELIC R301Q/R299Q) was 21 and the “Increase in average number of POPG bound compared to WT” value (ELIC L238A) was ~ 1.7 x. For the same molecule, the “Decrease in average number of bound POPG compared to WT” value [2] was 13–18%, the “Decrease in bound phospholipid with each double mutant” value [3] was 35–45% and the “Decrease in average number of bound POPG relative to R299Q” value ([3]; 12 μM POPG) was 27–32%. The “Decrease in average number of bound POPG relative to WT” value ([3]; 12 μM POPG) was 38–41%, the EC50 (ELIC WT [4]; 1 μM ELIC in C10E5, 32°C for 15 min, read-out: EC50 of thermal stabilizing effect (concentration of POPG for 50% effect)) was 52 µM and the “Fraction of thermal stabilizing effect yielded by 32 bound POPG” value (ELIC WT [4]; extrapolation relating POPG binding to thermal stability) was ~ 82% and > 80%. The “Desensitization weighted τ” value (ELIC WT [5]; 12 mole% POPG giant liposomes) was 0.93 ± 0.32 s, the “Activation τ” value (ELIC WT [5]; 12 mole% POPG) was 112 ± 29 ms and the “Desensitization norm current at 20 s” value (ELIC WT [5]; 12 mole% POPG) was 0.05 ± 0.02. For the same molecule, the “Activation τ” value (ELIC WT [5]; 25 mole% POPG) was 134 ± 50 ms, the “Desensitization norm current at 20 s” value (ELIC WT [5]; 25 mole% POPG) was 0.10 ± 0.04 and the “Desensitization weighted τ” value (ELIC WT [5]; 40 mole% POPG giant liposomes) was 2.98 ± 0.24 s. For the same molecule, the “Activation τ” value (ELIC WT [5]; 40 mole% POPG) was 133 ± 66 ms and the “Desensitization norm current at 20 s” value (ELIC WT [5]; 40 mole% POPG) was 0.21 ± 0.03.
